{
  "source": "patent US20100216693A1",
  "about": "“COMPOSITIONS AND METHODS OF TREATING DIABETES” (priority 2005, published 2010)",
  "key": {"[1]": {"settings": "in vivo; cited from earlier work"}, "[2]": {"target": "T1, insulin-insulin interaction (Homo sapiens, UniProt P01308)", "T1 construct": "28; purchased Novo Nordisk A/S, Denmark Actrapid", "T1 sequence (P01308 25-54 limits assumed)": "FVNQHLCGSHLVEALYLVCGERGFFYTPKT", "T1 sequence (P01308 90-110 limits assumed)": "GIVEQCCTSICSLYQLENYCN", "test": "SPR: effect of substances mixed with insulin in solution on insulin-insulin interaction", "assay_type": "binding", "settings": "for effect of additive on insulin-insulin interaction: pH 5, insulin 10 μM, zinc sulfate in molar ratios higher than insulin, EDTA up to 10 μM", "protocol": "BiacorA Biacore 3000 instrument was employed for the interaction measurements based on surface plasmon resonance (SPR). Interaction analyses were performed at 25° C. in 10 mM Na-citrate buffers pH 3, 4, 5, 10 mM bis-Tris, pH 6, and 10 mM Tris/HC1, pH 7, all buffers containing 100 mM NaCl and 0.005% 5P20. Flow rates for the binding analyses were kept at 20 μl/min. […] Insulin was immobilized on a carboxymethyl-modified dextran surface via both amine and carboxyl coupling, using the surface thiol method, in two different lanes of Biacore CM5 chips. The immobilization was carried out according to the procedure described in the kits. In brief, the sensor chip surface was first washed with 4 M LiCl/HBS for 1 min and then with 0.2% SP20/HBS for 1 mM. The surface was activated according to standard procedure with an injection of 0.05 M NHS/0.2 M EDC for 7 min. Desalted insulin solution was diluted in acetate buffer, pH 4.5, to 20 μg/ml and injected at 50/min for different time intervals. For surface thiol coupling, the surface was first activated with 0.05 M NHS/0.2 M EDC for 2 min followed by a 3 min injection of 40 mM cystamine dihydrochloride and then 0.1 M DTE for 3 min. […] The mixture was incubated for 10 mM at room temperature and excess PDEA was removed on a NAP-10 column. The purified PDEA ligand was injected for 7 min, soon after DTE, and finally the surface was washed with 20 mM PDEA in 0.1 M sodium acetate, 1.0 M NaCl. For quick regeneration of the surface, 2 M guanidine-HC1, pH 6.4, was employed. For controls, lanes activated and deactivated according to the standard procedures were used. For subtraction of noise from the data, running buffer only was injected to all surfaces. For the C-terminal attachment, surface-thiol coupling to 4000-5000 RU was used, and for N-terminal attachment, amine coupling to 800-1000 RU as achieved on different CM5 chips. However for kinetic analysis immobilization was carried out in a controlled condition and around 1000 RU for C-terminal and 400 RU for N-terminal coupling were immobilized. A surface activated with EDC/NHS and deactivated with ethanolamine was used as a control surface for N-terminally immobilized insulin and a surface treated with EDC/NHS, cysteine/DTE and finally deactivated with PDEA-NaCl was used as a control for C-terminally immobilized insulin. Biacore data were analyzed with Bia-evaluation software 4.1. All calculations based on numerical approaches, including simulations and global curve fitting for estimates of active concentrations, were performed with IGOR Pro (version 4.01.A, WaveMetrics, Inc.). However, C-peptide, mixed with insulin in solution, influences the insulin-insulin monomer interactions measured above. […] This elevated interaction can be seen at different pH from 3-7. The phenomenon of more pronounced interaction was clearer when concentrations higher than 0.5 μM were used then below 0.5 μM. […] All concentrations were run in triplicates and in random order."}, "[3]": {"test": "s.c. injection of C-peptide plus soluble insulin (CI-day) vs insulin plus diluent (I-day), glucose clamp, Type 1 diabetic patients", "assay_type": "in vivo, human", "protocol": "Apart from insulin they had no other medication. All patients received injections of soluble insulin before meals and intermediate-acting insulin at bedtime. Six patients had simplex retinopathy and two of these (nos. 4 and 8) also had microalbuminuaria. All subjects were informed of the purpose, nature and possible risks before giving their consent to participate in the study, which was approved by the local Ethics Committee. The experiments were carried out on two days separated by at least one week. The patients were admitted to the hospital at 8 p.m. in the evening before the study day. They received their last dose of insulin at 4-6 p.m. In order to clear the subcutaneous depots of insulin no intermediate-acting insulin was given at bedtime. Instead, an intravenous infusion of insulin was started at the time of admission. […] On the study day the investigation started at 7.30 a.m. after an overnight fast. A short teflon catheter was inserted into an antecubital vein for blood sampling. […] The injections were given with an automatic injection device (which allowed standardization of speed and depth) approximately 100 mm lateral to the umbilicus into the middle of the subcutaneous tissue, the depth of which was predetermined with ultrasound. After the injections plasma glucose was allowed to decrease to 3.5 mmol/l, whereafter it was maintained at 3.5-5 mmol/l using a variable glucose infusion (DeFronzo R, Tobin J, Andres R, American Journal of Physiology 237:[…]-[…], 1979) The patients were followed for 6 hours. Blood samples for the determination of plasma glucose, free insulin, C-peptide, FFA and glucagon were taken at timed intervals. […] Plasma free insulin was determined by radioimmunoassay after immediate polyethylene glycol precipitation (Arnquist H, Olsson P, von Schenk H, Clinical Chemistry 33:93-96, 1987). C-peptide (Heding L, Diabetologia 11:541-548, 1975) and glucagon were also analyzed by radioimmunoassay using a commercially available kit (MILAB, Malmö, Sweden). Plasma […], Greenberg […], Goetz F, Metabolism 35:122-125, 1986) was determined by a fluorometric method. Standard statistical methods including Wilcoxon's nonparametric test, Student's paired t-test and linear regression analyses were performed when applicable. Results are presented as mean values±SEM. […] The areas under the plasma insulin, and free fatty acid concentration curves were computed by trapezoidal integration."}, "[4]": {"target": "T2, immobilized insulin (Homo sapiens, UniProt P01308)", "T2 construct": "28; purchased Novo Nordisk A/S, Denmark Actrapid", "T2 sequence (P01308 25-54 limits assumed)": "as the sequence (P01308 25-54 limits assumed) above", "test": "SPR (Biacore 3000) insulin-insulin interaction, free insulin over chip-immobilized insulin", "assay_type": "binding", "settings": "for Kd: C-terminally immobilized insulin, global fit, analyte with two binding sites competing for one site, insulin 0.25-10 μM", "protocol": "BiacorA Biacore 3000 instrument was employed for the interaction measurements based on surface plasmon resonance (SPR). Interaction analyses were performed at 25° C. in 10 mM Na-citrate buffers pH 3, 4, 5, 10 mM bis-Tris, pH 6, and 10 mM Tris/HC1, pH 7, all buffers containing 100 mM NaCl and 0.005% 5P20. Flow rates for the binding analyses were kept at 20 μl/min. Insulin was desalted and buffer was exchanged on NAP 10 columns from Amersham Biosciences.\nWorking insulin solution was prepared after removing the excess of zinc sulfate, meta-cresol and other salts from the original solution by passing through a NAP 10 column in the desired buffer for experiments. The desalted insulin was diluted to 1 mM, aliquoted and stored at −20° C.\nInsulin was immobilized on a carboxymethyl-modified dextran surface via both amine and carboxyl coupling, using the surface thiol method, in two different lanes of Biacore CM5 chips. The immobilization was carried out according to the procedure described in the kits. In brief, the sensor chip surface was first washed with 4 M LiCl/HBS for 1 min and then with 0.2% SP20/HBS for 1 mM. The surface was activated according to standard procedure with an injection of 0.05 M NHS/0.2 M EDC for 7 min. Desalted insulin solution was diluted in acetate buffer, pH 4.5, to 20 μg/ml and injected at 50/min for different time intervals. For surface thiol coupling, the surface was first activated with 0.05 M NHS/0.2 M EDC for 2 min followed by a 3 min injection of 40 mM cystamine dihydrochloride and then 0.1 M DTE for 3 min. At the same time, 2-(2-pyridinyldithio)ethaneamine hydrochloride (PDEA) insulin was prepared by dissolving 0.5 mg insulin in 0.5 ml 0.1 M MES, adding to it 0.25 ml of (15 mg/ml) PDEA in 0.1 M MES, pH 5, and 25 μl 0.4M EDC. The mixture was incubated for 10 mM at room temperature and excess PDEA was removed on a NAP-10 column. The purified PDEA ligand was injected for 7 min, soon after DTE, and finally the surface was washed with 20 mM PDEA in 0.1 M sodium acetate, 1.0 M NaCl. For quick regeneration of the surface, 2 M guanidine-HC1, pH 6.4, was employed. For controls, lanes activated and deactivated according to the standard procedures were used. For subtraction of noise from the data, running buffer only was injected to all surfaces.\nFor the C-terminal attachment, surface-thiol coupling to 4000-5000 RU was used, and for N-terminal attachment, amine coupling to 800-1000 RU as achieved on different CM5 chips. However for kinetic analysis immobilization was carried out in a controlled condition and around 1000 RU for C-terminal and 400 RU for N-terminal coupling were immobilized. […]\nBiacore data were analyzed with Bia-evaluation software 4.1. […]"}, "[5]": {"target": "T3, insulin (Homo sapiens, UniProt P01308)", "T3 construct": "28; purchased Novo Nordisk A/S, Denmark Actrapid", "T3 sequence (P01308 25-54 limits assumed)": "as above", "test": "Non-denaturing nano-electrospray mass spectrometry of insulin, C-peptide and control peptides", "assay_type": "binding", "settings": "ESI-MS", "protocol": "For mass spectrometric analysis, preparation of concentrated insulin stock solution was performed essentially as described [Nettleton et al, 2000, Biophys J. 79:1053]. Briefly, insulin (NovoNordisk A/S, Denmark) was concentrated to 100 μM using ultrafiltration spin-filters (NanoSep, PallGellman, MWCO: 3000 Da). This stock solution was then buffer-exchanged to water, pH 5 (HCl), by extended dialysis. For all experiments, insulin and C-peptide stock solutions were diluted in water-HC1 (pH 5) to reach the indicated concentrations. C-peptide was prepared as a 746 μM stock solution in water and all control peptides were prepared similarly.\nMass spectrometry data were recorded with a QTOF Ultima API instrument (Waters, Milford, Mass.) operated in the positive ion mode. Sample solutions were analyzed by nanoelectrospray from conductive borosilicate glass capillaries (Proxeon Biosystems A/S, Odense, Denmark). Instrument settings were not modified for the observation of non-covalent complexes, other than that the “cone” and the “RF-lens” settings were set to 90 and 50 V, respectively.\nThe binding between insulin and C-peptide in the gas-phase was studied by non-denaturing electrospray mass spectrometry using a method analogous to that of Nettleton et al [Nettleton et al, 2000, Biophys J. 79:1053]."}},
  "note": "Like-named read-outs stand apart in the source and are kept apart here.",
  "data": [
    {"compound": "zinc insulin (Lente): human insulin preparation, zinc insulin, with extended duration", "values": [
      {"measurement": "effective duration", "setting": "[1]", "value": "12 to 20", "unit": "h"},
      {"measurement": "onset of action", "setting": "[1]", "value": "120 to 240", "unit": "min"},
      {"measurement": "peak action", "setting": "[1]", "value": "4 to 10", "unit": "h"}
    ]},
    {"compound": "C-terminal pentapeptide: pentapeptide EGSLQ (SEQ ID NO. 2), residues 27-31 of native human C-peptide (Pentapeptide of C-peptide)", "values": [
      {"measurement": "enhancement of insulin-insulin binding relative to native C-peptide", "setting": "[2]; 1:1 molar ratio (FIG. 15)", "value": "as equally effective as the native C-peptide"},
      {"measurement": "stimulation of SPR-measurable binding in mixture with insulin in the flow-through solution", "setting": "[2]; Example 10", "value": "stimulated SPR-measurable binding"}
    ]},
    {"compound": "O=S(=O)([O-])[O-].[Zn+2]", "note": "[zinc sulfate]", "values": [
      {"measurement": "effect of additive on insulin-insulin interaction", "setting": "[2]", "value": "diminished insulin interaction"}
    ]},
    {"compound": "I: soluble insulin (Humulin; 10U) and C-peptide diluent, injected s.c.", "values": [
      {"measurement": "AUC for plasma FFA concentration 0-360 min", "setting": "[3]; 0-360 min", "value": "129 ± 17", "unit": "mmol·min/L"},
      {"measurement": "plasma FFA 10 min after the injections", "setting": "[3]; 30 min after cessation of i.v. insulin infusion", "value": "0.80 ± 0.11", "unit": "mmol/L"},
      {"measurement": "AUC for plasma FFA concentration 0-180 min", "setting": "[3]; after correction for the plasma free insulin area, p<0.01", "value": "55.6 ± 5.1", "unit": "mmol·min/L"},
      {"measurement": "area under the plasma IRI curve (0-360 min)", "setting": "[3]; human, in vivo", "value": "5847±430", "unit": "mU/l×min"},
      {"measurement": "plasma glucose at the beginning of the glucose infusions", "setting": "[3]; human, in vivo", "value": "3.5 ± 0.05", "unit": "mmol/L"},
      {"measurement": "plasma C-peptide at 360 min", "setting": "[3]; mean±SEM", "value": "0.10 ± 0.02", "unit": "nmol/L"},
      {"measurement": "patients requiring intravenous infusion of glucose to avoid hypoglycemia", "setting": "[3]; nine patients", "value": "7 of 9"},
      {"measurement": "time of peak plasma insulin (IRI)", "setting": "[3]; s.c. insulin 10 U", "value": "88 ± 11", "unit": "min"},
      {"measurement": "duration of glucose infusion", "setting": "[3]; variable glucose infusion to avoid hypoglycemia", "value": "124 ± 28", "unit": "min"}
    ]},
    {"compound": "Lispro", "values": [
      {"measurement": "effective duration", "setting": "[1]", "value": "4 to 6", "unit": "h"},
      {"measurement": "onset of action", "setting": "[1]", "value": "5 to 15", "unit": "min"},
      {"measurement": "peak action", "setting": "[1]", "value": "0.5 to 1.5", "unit": "h"}
    ]},
    {"compound": "Human insulin", "values": [
      {"measurement": "Kd", "setting": "[4]; read-out: dissociation constant KD1 (slow off rate)", "value": 2.71, "unit": "µM"},
      {"measurement": "Kd", "setting": "[4]; read-out: dissociation constant KD2 (rapid off rate)", "value": 4.65, "unit": "µM"},
      {"measurement": "lowest insulin solution concentration at which binding is noticeable", "setting": "[4]; pH 5", "value": 0.05, "unit": "µM"},
      {"measurement": "pH of highest (maximum) insulin-insulin binding interaction", "setting": "[4]; pH range 3-7", "value": 5},
      {"measurement": "insulin concentration at which dimerization is detectable", "setting": "[5]", "value": 3, "unit": "µM"},
      {"measurement": "insulin concentration at which higher polymers up to hexamers are detectable", "setting": "[5]", "value": 30, "unit": "µM"}
    ]},
    {"compound": "Insulin Glulisine", "values": [
      {"measurement": "action / pharmacokinetic profile compared with other rapid acting analogues", "setting": "[1]", "value": "pharmacokinetic profile similar to Lispro and Aspart"}
    ]},
    {"compound": "regular insulin: regular human insulin", "values": [
      {"measurement": "effective duration", "setting": "[1]", "value": "8 to 10", "unit": "h"},
      {"measurement": "onset of action", "setting": "[1]", "value": "30 to 60", "unit": "min"},
      {"measurement": "peak action", "setting": "[1]", "value": "2 to 3", "unit": "h"}
    ]},
    {"compound": "O=C(O)CN(CCN(CC(=O)O)CC(=O)O)CC(=O)O", "note": "[EDTA]", "values": [
      {"measurement": "effect of additive on insulin-insulin interaction", "setting": "[2]", "value": "promoted insulin-insulin interaction"}
    ]}
  ]
}
